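Method: 48-hour compound exposure of cells in 96-well plates, five concentrations, linear interpolation of endpoints. GI50 = concentration required for 50% inhibition of growth. TGI marks complete inhibition of growth.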
Columns and labels:
Assay in all cases: NCI anticancer screen, dose series, 48 h
HOP-92 NSCLC = test system: HOP-92 NSCLC
786-0 renal = test system: 786-0 renal
M14 melanoma = test system: M14 melanoma
SF-295 CNS = test system: SF-295 CNS
MDA-MB-435 = test system: MDA-MB-435
ACHN renal = test system: ACHN renal
SNB-19 CNS = test system: SNB-19 CNS
HOP-62 NSCLC = test system: HOP-62 NSCLC
HCC-2998 colon = test system: HCC-2998 colon
SF-539 CNS = test system: SF-539 CNS

SMILES | GI50 (HOP-92 NSCLC) | TGI (HOP-92 NSCLC) | GI50 (786-0 renal) | TGI (786-0 renal) | GI50 (M14 melanoma) | TGI (M14 melanoma) | GI50 (SF-295 CNS) | TGI (SF-295 CNS) | GI50 (MDA-MB-435) | TGI (MDA-MB-435) | GI50 (ACHN renal) | TGI (ACHN renal) | GI50 (SNB-19 CNS) | TGI (SNB-19 CNS) | GI50 (HOP-62 NSCLC) | TGI (HOP-62 NSCLC) | GI50 (HCC-2998 colon) | TGI (HCC-2998 colon) | GI50 (SF-539 CNS) | TGI (SF-539 CNS)
CCCCCCCC/C=C/CCCCCCCC1=NC(C)(C)CN1CC(C)O (centres undefined) | 1.21 µM | 5.58 µM | 1.71 µM | 3.16 µM | 1.79 µM | 3.35 µM | 1.82 µM | 3.5 µM | 1.77 µM | 3.45 µM | 1.83 µM | 3.55 µM | 5.54 µM | 17.7 µM | 1.83 µM | 3.39 µM | 4.68 µM | 9.45 µM | 1.7 µM | 3.09 µM
COc1c(O)c(OC)c2oc(-c3ccc(O)c(O)c3)c(OC)c(=O)c2c1O |  | 66 µM |  | 50.9 µM |  | 50.7 µM |  | > 100 µM |  | 56.7 µM |  | > 100 µM |  | > 100 µM |  | 43.7 µM |  | 98 µM |  | > 100 µM
Nc1nc2c(ncn2C2CCC(CO)O2)c(=O)n1C(=O)c1ccccc1 (centres undefined) |  | > 100 µM |  | > 100 µM |  | > 100 µM |  | > 100 µM |  | > 100 µM |  | > 100 µM |  | > 100 µM |  | > 100 µM |  | > 100 µM |  | > 100 µM
CC(C)N1CC2CN(Cc3ccccc3)CC(C1)C2=O |  | > 100 µM |  | > 100 µM |  | > 100 µM |  | > 100 µM |  | > 100 µM |  | > 100 µM |  | > 100 µM |  | > 100 µM |  | > 100 µM |  | > 100 µM
O=C1C(Cl)=C(Sc2nnc3c4ccccc4c4ccccc4c3n2)C(=O)c2ccccc21 |  | 33.2 µM |  | 33.9 µM |  | 35 µM |  | 23.3 µM |  | 3.41 µM |  | 29.5 µM |  | 36.6 µM |  | 32 µM |  | 94.2 µM |  | 32.4 µM
COc1cc(/C=C2\C[C@H]3[C@@H]4CC=C5C[C@@H](O)CC[C@]5(C)[C@H]4CC[C@]3(C)[C@H]2O)ccc1OCCN1CCCC1 | 8.26 µM | 17.1 µM | 6.16 µM | 16 µM | 8.16 µM | 18.3 µM | 13.6 µM | 37 µM | 10.7 µM | 28.2 µM | 8.38 µM | 16.9 µM | 11.8 µM | 31.3 µM | 9.67 µM | 20.8 µM | 10.1 µM | 20.6 µM | 8.28 µM | 17.6 µM
C=C1CC2CCCC12C=O (centres undefined) |  | > 10 µM |  | > 10 µM |  | > 10 µM |  | > 10 µM |  | > 10 µM |  | > 10 µM |  | > 10 µM |  | > 10 µM |  | > 10 µM |  | > 10 µM
Cc1ccc(NC(=O)c2ccc(CN3CCN(C)CC3)cc2)cc1Nc1nccc(-c2cccnc2)n1 | 12.6 µM | 37.3 µM | 16.1 µM | 33.6 µM | 19.1 µM | 35.7 µM | 17.8 µM | 38.3 µM | 17.4 µM | 36 µM | 24.1 µM | 72.9 µM | 36.1 µM | > 100 µM | 21.9 µM | 47 µM | 21.3 µM | 38.5 µM | 8.06 µM | 22.4 µM
CCOC(=O)[C@@H](C)C[C@H](Cc1ccccc1)NC(=O)c1nc([C@@H](C[C@H](C(C)C)N(C)C(=O)[C@@H](NC(=O)[C@H]2CCCCN2C)C(C)C)OC(C)=O)sc1CCOCc1ccccc1 | 0.109 µM | 2.34 µM | 0.08 µM | 1.59 µM | 0.0689 µM | 0.727 µM | 0.0499 µM | 1.36 µM | 0.0123 µM | 0.0478 µM | 0.117 µM | 3.06 µM | 0.0926 µM | 4.34 µM | 0.226 µM | 2.91 µM | 0.119 µM | 1.13 µM | 0.0571 µM | 0.39 µM
COc1cccc(CCC2CCCN(c3cc(C)nc(N)n3)C2)c1 (centres undefined) | 0.519 µM | 11.6 µM | 0.526 µM | 11.9 µM | 0.302 µM | 2.6 µM | 0.362 µM | 10.6 µM | 0.153 µM | 0.404 µM | 0.625 µM | 14.1 µM | 0.521 µM | 16 µM | 0.434 µM | 6.43 µM | 1.54 µM | 7.52 µM | 0.277 µM | 1.15 µM
C[C@]12CCc3nc(Nc4cccc(O)c4)sc3C1=CC[C@@H]1[C@@H]2CC[C@]2(C)/C(=N\NC(N)=S)CC[C@@H]12 | 2.02 µM | 7.6 µM | 1.44 µM | 4.31 µM | 1.96 µM | 5 µM | 1.2 µM | 3.11 µM | 1.76 µM | 4.55 µM | 2.15 µM | 6 µM | 1.88 µM | 12.8 µM | 1.86 µM | 4.07 µM | 1.86 µM | 3.49 µM | 0.464 µM | 1.84 µM
O=C(c1ccco1)c1nc2cc(C(F)(F)F)ccc2nc1C(F)(F)F | 27.2 µM | > 100 µM | > 100 µM | > 100 µM | > 100 µM | > 100 µM | > 100 µM | > 100 µM | > 100 µM | > 100 µM | > 100 µM | > 100 µM | > 100 µM | > 100 µM | 71 µM | > 100 µM | > 100 µM | > 100 µM | > 100 µM | > 100 µM
COc1ccc(N=Cc2c(O)ccc3c2oc2cc(Cl)c(O)c(Cl)c23)cc1 | 6.09 µM | 32.6 µM | 19.2 µM | 52 µM | 20.9 µM | 61.2 µM | 3.39 µM | 17.8 µM | 11.6 µM | 43.2 µM | 6.22 µM | 44.4 µM | 13.9 µM | 79.8 µM | 14.3 µM | 33.5 µM | 15 µM | 29.3 µM | 7.03 µM | 30.4 µM
O=C1c2[nH]cc(CNC3CN4CCC3CC4)c2C(=O)c2c1c(O)c1ccccc1c2O (centres undefined) | 1.1 µM |  | 2.53 µM | 8.65 µM | 3.11 µM | 11.7 µM | 2.05 µM | 3.62 µM | 1.4 µM | 2.76 µM | 2.6 µM | 8.04 µM | 2.92 µM | 12.4 µM | 1.11 µM | 2.43 µM | 0.187 µM | 0.721 µM | 1.94 µM | 3.61 µM
CC12OOC(c3ccccc31)c1c2ccc2ccccc12 (centres undefined) |  | 9.94 µM |  | 22.3 µM |  | 22.6 µM |  | 14.3 µM |  | 18.2 µM |  | 3.51 µM |  | 30.5 µM |  | 30.2 µM |  | 16.2 µM |  | 22.3 µM
CCOC(=O)c1ccc(Nc2sc(C(=O)c3ccc(Br)cc3)c(N)c2C#N)cc1 | 0.884 µM | > 100 µM | 1.99 µM | > 100 µM | 1.27 µM | > 100 µM | 0.478 µM | > 100 µM | 0.257 µM | 1.01 µM | 3.24 µM | > 100 µM | 7.18 µM | > 100 µM | 1.56 µM | > 100 µM | > 100 µM | > 100 µM | 1.07 µM | > 100 µM
CO/C=C/C(=O)c1cc2cnc3c(=N)cc(NC(=O)C(C)C)c([nH]1)c23 | 0.00796 µM | 0.0456 µM | 0.0981 µM | 0.695 µM | 0.0703 µM | 0.529 µM | 0.105 µM | 0.771 µM | 0.0852 µM | 0.836 µM | 0.1 µM | 1.67 µM | 0.148 µM | 1.08 µM | 0.0844 µM | 1.04 µM | 0.291 µM | 1.63 µM | 0.0596 µM | 0.333 µM
CC[C@H](NC(=O)[C@H]1CCCCN1C)C(=O)N(C)[C@H](C[C@@H](OC(C)=O)c1nc(C(=O)N[C@@H](Cc2ccccc2)C[C@H](C)C(=O)O)cs1)C(C)C | 0.00585 µM | > 6.56 µM | 0.00868 µM | > 14.3 µM | 0.00244 µM | 0.00969 µM | 0.00456 µM | > 6.44 µM | < 0.00143 µM | 0.00391 µM | 0.0142 µM | > 14.3 µM | 0.00568 µM | > 14.3 µM | 0.00673 µM | > 14.3 µM | 0.0112 µM | > 14.3 µM | 0.0035 µM | 0.0265 µM
CC(C)(C)N1CCC1CN (centres undefined) | > 100 µM | > 100 µM | > 100 µM | > 100 µM | > 100 µM | > 100 µM | > 100 µM | > 100 µM | > 100 µM | > 100 µM | > 100 µM | > 100 µM | > 100 µM | > 100 µM | > 100 µM | > 100 µM | > 100 µM | > 100 µM | > 100 µM | > 100 µM
N#Cc1c(NC(=O)NCc2ccccc2)sc2c1CCCC2 | 1.79 µM | 71 µM | 0.822 µM | > 100 µM | 0.421 µM | > 100 µM | 0.549 µM | 37.7 µM | 0.215 µM | 0.595 µM | 0.677 µM | > 100 µM | 0.675 µM | > 100 µM | 1.51 µM | > 74.8 µM | 1.72 µM | > 100 µM | 0.37 µM | 4.68 µM
CSc1ccc(-c2ccccc(=O)c2O)cc1 | 1.61 µM | 73.3 µM | 0.447 µM | 12.6 µM | 0.347 µM | 2.68 µM | 0.437 µM | 18.3 µM | 0.646 µM | > 100 µM | 0.397 µM | 71.1 µM | 0.57 µM | > 100 µM | 0.54 µM | 50.9 µM | 0.594 µM | > 100 µM | 0.394 µM | 11.6 µM
Cc1c(O)c2ccccc2oc1=O |  | > 100 µM |  | > 100 µM |  | > 100 µM |  | > 100 µM |  | > 100 µM |  | > 100 µM |  | > 100 µM |  | > 100 µM |  | > 100 µM |  | > 100 µM
CC1(C)N=C(N)N=C(N)N1c1ccc(CCCCc2ccccc2)c(Cl)c1 | 0.464 µM | 4.48 µM | 0.055 µM | 13.1 µM | 0.0598 µM | 8.77 µM | 0.0457 µM | 14.6 µM | 0.038 µM | 5.91 µM | 0.461 µM | 22.1 µM | 0.0746 µM | > 35.9 µM | 0.0672 µM | 5.46 µM | 0.131 µM | 3.52 µM | 0.121 µM | 5.14 µM
Cc1cc(Nc2ccc(OCc3ccccc3)cc2)nc2cc(O)ccc12 | 2.01 µM | 6.26 µM | 4.51 µM | 17.2 µM | 2.39 µM | 6.15 µM | 2.23 µM | 5.36 µM | 5.49 µM | 17.9 µM | 3.41 µM | 13.3 µM | 9.57 µM | 23.2 µM | 11.7 µM | 26.5 µM | 2.41 µM | 5.18 µM | 2.08 µM | 4.93 µM

Reference: PubChem BioAssay (NCI)
